# Columns and labels:
# Test in all cases: radiometric filter-binding kinase assay
# [1] = system: AKT1 (human), P31749 [S473D]
# AURKA (human) = AURKA (human) (UniProt O14965)
# BRSK2 (human) = BRSK2 (human) (UniProt Q8IWQ3)
# CHEK2 (human) = CHEK2 (human) (UniProt O96017)
# CaMK1 (human) = CaMK1 (human) (UniProt Q14012)
# DYRK1A (human) = DYRK1A (human) (UniProt Q13627)
# DYRK2 (human) = DYRK2 (human) (UniProt Q92630)
# EPHB2 (human) = EPHB2 (human) (UniProt P29323)
# EPHB3 (human) = EPHB3 (human) (UniProt P54753)
# ERBB4 (human) = ERBB4 (human) (UniProt Q15303)
# HIPK2 (human) = HIPK2 (human) (UniProt Q9H2X6)
# IKBKE (human) = IKBKE (human) (UniProt Q14164)
# MAP2K6 (human) = MAP2K6 (human) (UniProt P52564)
# MAP2K6 (human), sequence (P52564 whole entry, looked up): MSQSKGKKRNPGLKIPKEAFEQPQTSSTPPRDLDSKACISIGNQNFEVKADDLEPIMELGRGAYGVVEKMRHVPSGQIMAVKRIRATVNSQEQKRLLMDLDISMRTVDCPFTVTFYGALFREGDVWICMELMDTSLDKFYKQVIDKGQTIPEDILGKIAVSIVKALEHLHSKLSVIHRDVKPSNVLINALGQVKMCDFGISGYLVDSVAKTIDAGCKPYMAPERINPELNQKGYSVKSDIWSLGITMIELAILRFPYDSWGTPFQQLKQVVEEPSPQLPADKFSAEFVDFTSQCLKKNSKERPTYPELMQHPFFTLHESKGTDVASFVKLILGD
# MAP3K11 (human) = MAP3K11 (human) (UniProt Q16584)
# MAPK1 (human) = MAPK1 (human) (UniProt P28482)
# MAPK10 (human) = MAPK10 (human) (UniProt P53779)
# MAPK12 (human) = MAPK12 (human) (UniProt P53778)
# MAPK13 (human) = MAPK13 (human) (UniProt O15264)
# MAPK13 (human), sequence (O15264 whole entry, looked up): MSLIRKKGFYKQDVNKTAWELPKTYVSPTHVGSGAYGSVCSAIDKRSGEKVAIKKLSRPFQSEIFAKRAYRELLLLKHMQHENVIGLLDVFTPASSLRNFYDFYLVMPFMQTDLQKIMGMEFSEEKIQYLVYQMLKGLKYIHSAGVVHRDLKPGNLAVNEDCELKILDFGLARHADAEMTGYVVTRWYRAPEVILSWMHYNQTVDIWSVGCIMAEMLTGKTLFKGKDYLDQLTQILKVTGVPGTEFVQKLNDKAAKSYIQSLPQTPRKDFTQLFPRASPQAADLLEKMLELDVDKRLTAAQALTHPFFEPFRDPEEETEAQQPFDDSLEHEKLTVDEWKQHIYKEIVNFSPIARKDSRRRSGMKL
# MAPK3 (human) = MAPK3 (human) (UniProt P27361)
# MAPK8 (human) = MAPK8 (human) (UniProt P45983)
# MAPKAPK3 (human) = MAPKAPK3 (human) (UniProt Q16644)
# MARK2 (human) = MARK2 (human) (UniProt Q7KZI7)
# MARK2 (human), sequence (Q7KZI7 whole entry, looked up): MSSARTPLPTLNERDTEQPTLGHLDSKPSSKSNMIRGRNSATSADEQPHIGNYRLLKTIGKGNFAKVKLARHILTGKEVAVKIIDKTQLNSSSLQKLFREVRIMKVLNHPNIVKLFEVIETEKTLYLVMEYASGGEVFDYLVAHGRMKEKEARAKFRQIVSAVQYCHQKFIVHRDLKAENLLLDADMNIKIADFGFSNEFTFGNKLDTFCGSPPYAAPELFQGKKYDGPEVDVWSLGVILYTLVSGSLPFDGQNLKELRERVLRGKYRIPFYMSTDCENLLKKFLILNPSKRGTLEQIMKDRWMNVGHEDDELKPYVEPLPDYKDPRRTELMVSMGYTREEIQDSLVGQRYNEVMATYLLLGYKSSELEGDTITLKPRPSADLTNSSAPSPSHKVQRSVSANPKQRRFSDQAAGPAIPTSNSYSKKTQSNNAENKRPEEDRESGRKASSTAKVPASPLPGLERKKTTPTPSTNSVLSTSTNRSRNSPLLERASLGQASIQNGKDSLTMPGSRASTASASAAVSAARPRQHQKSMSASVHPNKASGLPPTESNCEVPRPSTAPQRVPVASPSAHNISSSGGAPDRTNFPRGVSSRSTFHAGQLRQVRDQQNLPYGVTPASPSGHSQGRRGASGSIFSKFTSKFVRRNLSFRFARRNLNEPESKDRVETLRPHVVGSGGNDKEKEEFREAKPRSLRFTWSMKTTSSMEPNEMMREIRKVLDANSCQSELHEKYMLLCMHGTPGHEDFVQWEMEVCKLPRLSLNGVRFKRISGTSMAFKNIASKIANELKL
# MKNK1 (human) = MKNK1 (human) (UniProt Q9BUB5)
# MST4 (human) = MST4 (human) (UniProt Q9P289)
# NEK2 (human) = NEK2 (human) (UniProt P51955)
# NUAK1 (human) = NUAK1 (human) (UniProt O60285)
# PAK4 (human) = PAK4 (human) (UniProt O96013)
# PAK7 (human) = PAK7 (human) (UniProt Q9P286)
# PLK1 (human) = PLK1 (human) (UniProt P53350)
# PLK1 (human), sequence (P53350 whole entry, looked up): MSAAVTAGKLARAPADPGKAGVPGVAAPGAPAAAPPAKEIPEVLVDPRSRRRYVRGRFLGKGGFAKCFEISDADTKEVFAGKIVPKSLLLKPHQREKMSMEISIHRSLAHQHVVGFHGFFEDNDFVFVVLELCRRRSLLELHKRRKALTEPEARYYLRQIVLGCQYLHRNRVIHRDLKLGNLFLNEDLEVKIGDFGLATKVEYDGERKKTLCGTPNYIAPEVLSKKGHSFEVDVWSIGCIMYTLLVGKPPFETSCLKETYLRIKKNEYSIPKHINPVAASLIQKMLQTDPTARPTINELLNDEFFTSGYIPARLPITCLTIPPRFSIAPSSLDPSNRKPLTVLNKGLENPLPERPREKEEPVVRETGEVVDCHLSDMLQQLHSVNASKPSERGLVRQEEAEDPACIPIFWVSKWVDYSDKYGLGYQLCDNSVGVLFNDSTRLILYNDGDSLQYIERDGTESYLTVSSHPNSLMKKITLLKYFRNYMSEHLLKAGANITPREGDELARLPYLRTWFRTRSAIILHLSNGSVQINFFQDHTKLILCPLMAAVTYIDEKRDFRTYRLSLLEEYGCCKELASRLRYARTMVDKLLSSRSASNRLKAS
# PRKACA (human) = PRKACA (human) (UniProt P17612)
# PRKCA (human) = PRKCA (human) (UniProt P17252)
# RPS6KA1 KD1 KD2 (human) = RPS6KA1 KD1 KD2 (human) (UniProt Q15418)
# RPS6KA1 KD1 KD2 (human), sequence (Q15418 whole entry, looked up): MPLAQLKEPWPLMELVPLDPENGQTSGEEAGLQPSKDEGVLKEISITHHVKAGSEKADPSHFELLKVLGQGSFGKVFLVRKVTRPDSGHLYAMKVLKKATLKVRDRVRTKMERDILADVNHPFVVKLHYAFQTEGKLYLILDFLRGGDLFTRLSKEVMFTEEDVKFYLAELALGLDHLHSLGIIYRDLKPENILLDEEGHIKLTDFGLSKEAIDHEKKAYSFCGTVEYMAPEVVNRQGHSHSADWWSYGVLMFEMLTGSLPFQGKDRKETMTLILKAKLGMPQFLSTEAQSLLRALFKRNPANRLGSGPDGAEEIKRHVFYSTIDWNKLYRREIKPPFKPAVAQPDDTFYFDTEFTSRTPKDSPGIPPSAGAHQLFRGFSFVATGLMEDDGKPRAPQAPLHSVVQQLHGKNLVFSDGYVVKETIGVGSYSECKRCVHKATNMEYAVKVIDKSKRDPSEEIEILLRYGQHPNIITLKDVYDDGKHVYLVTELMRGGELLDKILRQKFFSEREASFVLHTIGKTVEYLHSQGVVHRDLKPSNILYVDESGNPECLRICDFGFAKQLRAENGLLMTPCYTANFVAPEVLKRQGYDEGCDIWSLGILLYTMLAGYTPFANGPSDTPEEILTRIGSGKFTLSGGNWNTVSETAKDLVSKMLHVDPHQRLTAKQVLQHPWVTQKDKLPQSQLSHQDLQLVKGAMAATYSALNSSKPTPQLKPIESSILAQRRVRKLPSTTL
# [2] = system: SGK1 (human), O00141 [S422D]
# SYK (human) = SYK (human) (UniProt P43405)
# PRKAA1 or PRKAA2 (rat) = details: accession and sequence are those of the human protein
# DYRK2 (human), sequence (Q92630 whole entry, looked up): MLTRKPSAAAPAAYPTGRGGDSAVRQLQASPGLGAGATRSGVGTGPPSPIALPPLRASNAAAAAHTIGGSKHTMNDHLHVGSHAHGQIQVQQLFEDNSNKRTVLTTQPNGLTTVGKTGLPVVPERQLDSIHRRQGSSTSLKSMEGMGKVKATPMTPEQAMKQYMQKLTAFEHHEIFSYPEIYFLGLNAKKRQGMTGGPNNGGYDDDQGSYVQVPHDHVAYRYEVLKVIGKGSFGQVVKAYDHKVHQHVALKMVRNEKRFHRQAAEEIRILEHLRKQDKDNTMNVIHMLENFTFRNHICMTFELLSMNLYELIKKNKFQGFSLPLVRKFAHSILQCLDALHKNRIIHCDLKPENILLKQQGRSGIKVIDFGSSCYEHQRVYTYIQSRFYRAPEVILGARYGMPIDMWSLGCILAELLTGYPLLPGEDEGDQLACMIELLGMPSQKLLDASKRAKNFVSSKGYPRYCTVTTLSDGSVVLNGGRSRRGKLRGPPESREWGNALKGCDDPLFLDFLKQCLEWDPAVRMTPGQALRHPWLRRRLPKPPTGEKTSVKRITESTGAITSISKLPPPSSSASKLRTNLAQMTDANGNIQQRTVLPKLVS
# EPHB2 (human), sequence (P29323 whole entry, looked up): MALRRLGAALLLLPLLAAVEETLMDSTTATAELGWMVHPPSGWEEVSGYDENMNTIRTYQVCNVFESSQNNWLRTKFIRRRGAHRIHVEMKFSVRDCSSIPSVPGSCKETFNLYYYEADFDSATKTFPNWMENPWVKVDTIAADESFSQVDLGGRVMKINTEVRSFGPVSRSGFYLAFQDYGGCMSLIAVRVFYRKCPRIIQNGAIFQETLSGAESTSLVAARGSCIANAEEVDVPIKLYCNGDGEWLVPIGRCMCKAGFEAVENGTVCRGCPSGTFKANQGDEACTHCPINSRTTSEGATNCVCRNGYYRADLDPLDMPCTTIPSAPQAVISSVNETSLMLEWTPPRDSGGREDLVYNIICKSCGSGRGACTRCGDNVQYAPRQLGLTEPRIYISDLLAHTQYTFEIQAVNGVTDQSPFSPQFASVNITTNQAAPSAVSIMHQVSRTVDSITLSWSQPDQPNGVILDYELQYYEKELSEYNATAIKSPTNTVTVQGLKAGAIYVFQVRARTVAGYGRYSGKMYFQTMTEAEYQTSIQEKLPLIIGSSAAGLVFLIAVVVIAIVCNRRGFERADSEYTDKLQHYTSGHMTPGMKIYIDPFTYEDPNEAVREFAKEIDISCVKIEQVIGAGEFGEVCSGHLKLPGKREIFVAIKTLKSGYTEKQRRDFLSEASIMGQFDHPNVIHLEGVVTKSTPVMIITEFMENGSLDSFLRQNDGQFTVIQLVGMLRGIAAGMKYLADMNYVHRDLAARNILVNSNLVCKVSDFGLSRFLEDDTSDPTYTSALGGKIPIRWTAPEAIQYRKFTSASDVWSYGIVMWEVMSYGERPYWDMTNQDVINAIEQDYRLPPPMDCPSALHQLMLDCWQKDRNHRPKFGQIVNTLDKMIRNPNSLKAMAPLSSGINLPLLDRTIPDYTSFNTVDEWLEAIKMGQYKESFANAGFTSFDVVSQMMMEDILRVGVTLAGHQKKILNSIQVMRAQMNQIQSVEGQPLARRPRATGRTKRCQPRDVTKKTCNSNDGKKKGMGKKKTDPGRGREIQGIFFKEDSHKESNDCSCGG
# CHEK2 (human), sequence (O96017 whole entry, looked up): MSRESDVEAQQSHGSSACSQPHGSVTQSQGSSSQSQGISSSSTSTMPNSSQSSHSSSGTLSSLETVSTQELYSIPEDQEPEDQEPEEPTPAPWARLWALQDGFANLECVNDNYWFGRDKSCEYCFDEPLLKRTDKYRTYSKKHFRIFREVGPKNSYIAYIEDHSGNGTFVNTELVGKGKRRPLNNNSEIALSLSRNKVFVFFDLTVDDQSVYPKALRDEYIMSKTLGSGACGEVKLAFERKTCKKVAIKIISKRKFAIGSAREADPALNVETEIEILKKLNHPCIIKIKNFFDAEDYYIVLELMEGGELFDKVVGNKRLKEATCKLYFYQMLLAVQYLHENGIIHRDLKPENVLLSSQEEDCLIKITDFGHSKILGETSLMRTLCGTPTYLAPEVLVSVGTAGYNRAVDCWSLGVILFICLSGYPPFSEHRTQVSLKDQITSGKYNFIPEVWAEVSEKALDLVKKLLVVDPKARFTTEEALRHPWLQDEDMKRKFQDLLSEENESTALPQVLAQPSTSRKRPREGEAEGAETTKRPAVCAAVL
smiles,measurement,setting,value
O=C(NCCCNc1nc(Nc2cccc(CN3CCOCC3)c2)ncc1C1CC1)C1CCC1,residual activity,[1]; compound 0.1 µM,90%
same,residual activity,[1]; compound 1.0 µM,93%
same,residual activity,AURKA (human); compound 0.1 µM,87%
same,residual activity,AURKA (human); compound 1.0 µM,29%
same,residual activity,BRSK2 (human); compound 0.1 µM,88%
same,residual activity,BRSK2 (human); compound 1.0 µM,75%
same,residual activity,CHEK2 (human); compound 0.1 µM,105%
same,residual activity,CHEK2 (human); compound 1.0 µM,72%
same,residual activity,CaMK1 (human); compound 0.1 µM,104%
same,residual activity,CaMK1 (human); compound 1.0 µM,101%
same,residual activity,DYRK1A (human); compound 0.1 µM,99%
same,residual activity,DYRK1A (human); compound 1.0 µM,106%
same,residual activity,DYRK2 (human); compound 0.1 µM,92%
same,residual activity,DYRK2 (human); compound 1.0 µM,101%
same,residual activity,EPHB2 (human); compound 0.1 µM,88%
same,residual activity,EPHB2 (human); compound 1.0 µM,78%
same,residual activity,EPHB3 (human); compound 0.1 µM,110%
same,residual activity,EPHB3 (human); compound 1.0 µM,101%
same,residual activity,ERBB4 (human); compound 0.1 µM,90%
same,residual activity,ERBB4 (human); compound 1.0 µM,95%
same,residual activity,HIPK2 (human); compound 0.1 µM,95%
same,residual activity,HIPK2 (human); compound 1.0 µM,95%
same,residual activity,IKBKE (human); compound 0.1 µM,34%
same,residual activity,IKBKE (human); compound 1.0 µM,23%
same,residual activity,MAP2K6 (human); compound 0.1 µM,105%
same,residual activity,MAP2K6 (human); compound 1.0 µM,113%
same,residual activity,MAP3K11 (human); compound 0.1 µM,54%
same,residual activity,MAP3K11 (human); compound 1.0 µM,8%
same,residual activity,MAPK1 (human); compound 0.1 µM,111%
same,residual activity,MAPK1 (human); compound 1.0 µM,110%
same,residual activity,MAPK10 (human); compound 0.1 µM,110%
same,residual activity,MAPK10 (human); compound 1.0 µM,97%
same,residual activity,MAPK12 (human); compound 0.1 µM,88%
same,residual activity,MAPK12 (human); compound 1.0 µM,85%
same,residual activity,MAPK13 (human); compound 0.1 µM,88%
same,residual activity,MAPK13 (human); compound 1.0 µM,90%
same,residual activity,MAPK3 (human); compound 0.1 µM,105%
same,residual activity,MAPK3 (human); compound 1.0 µM,112%
same,residual activity,MAPK8 (human); compound 0.1 µM,93%
same,residual activity,MAPK8 (human); compound 1.0 µM,115%
same,residual activity,MAPKAPK3 (human); compound 0.1 µM,80%
same,residual activity,MAPKAPK3 (human); compound 1.0 µM,104%
same,residual activity,MARK2 (human); compound 0.1 µM,27%
same,residual activity,MARK2 (human); compound 1.0 µM,10%
same,residual activity,MKNK1 (human); compound 0.1 µM,89%
same,residual activity,MKNK1 (human); compound 1.0 µM,96%
same,residual activity,MST4 (human); compound 0.1 µM,87%
same,residual activity,MST4 (human); compound 1.0 µM,94%
same,residual activity,NEK2 (human); compound 0.1 µM,107%
same,residual activity,NEK2 (human); compound 1.0 µM,97%
same,residual activity,NUAK1 (human); compound 0.1 µM,47%
same,residual activity,NUAK1 (human); compound 1.0 µM,11%
same,residual activity,PAK4 (human); compound 0.1 µM,100%
same,residual activity,PAK4 (human); compound 1.0 µM,79%
same,residual activity,PAK7 (human); compound 0.1 µM,95%
same,residual activity,PAK7 (human); compound 1.0 µM,88%
same,residual activity,PLK1 (human); compound 0.1 µM,89%
same,residual activity,PLK1 (human); compound 1.0 µM,98%
same,residual activity,PRKACA (human); compound 0.1 µM,90%
same,residual activity,PRKACA (human); compound 1.0 µM,100%
same,residual activity,PRKCA (human); compound 0.1 µM,79%
same,residual activity,PRKCA (human); compound 1.0 µM,93%
same,residual activity,RPS6KA1 KD1 KD2 (human); compound 0.1 µM,73%
same,residual activity,RPS6KA1 KD1 KD2 (human); compound 1.0 µM,34%
same,residual activity,[2]; compound 0.1 µM,81%
same,residual activity,[2]; compound 1.0 µM,94%
same,residual activity,SYK (human); compound 0.1 µM,109%
same,residual activity,SYK (human); compound 1.0 µM,93%
Nc1cccc2c1CN(C1CCC(=O)NC1=O)C2=O (stereo unspecified),residual activity,[1]; compound 1.0 µM,88%
same,residual activity,[1]; compound 10.0 µM,91%
same,residual activity,AURKA (human); compound 1.0 µM,113%
same,residual activity,AURKA (human); compound 10.0 µM,100%
same,residual activity,BRSK2 (human); compound 1.0 µM,98%
same,residual activity,BRSK2 (human); compound 10.0 µM,105%
same,residual activity,CHEK2 (human); compound 1.0 µM,96%
same,residual activity,CHEK2 (human); compound 10.0 µM,93%
same,residual activity,CaMK1 (human); compound 1.0 µM,103%
same,residual activity,CaMK1 (human); compound 10.0 µM,91%
same,residual activity,DYRK1A (human); compound 1.0 µM,107%
same,residual activity,DYRK1A (human); compound 10.0 µM,99%
same,residual activity,DYRK2 (human); compound 1.0 µM,101%
same,residual activity,DYRK2 (human); compound 10.0 µM,103%
same,residual activity,EPHB2 (human); compound 1.0 µM,107%
same,residual activity,EPHB2 (human); compound 10.0 µM,113%
same,residual activity,EPHB3 (human); compound 10.0 µM,102%
same,residual activity,ERBB4 (human); compound 10.0 µM,106%
same,residual activity,HIPK2 (human); compound 1.0 µM,107%
same,residual activity,HIPK2 (human); compound 10.0 µM,103%
same,residual activity,IKBKE (human); compound 1.0 µM,119%
same,residual activity,IKBKE (human); compound 10.0 µM,99%
same,residual activity,MAP2K6 (human); compound 1.0 µM,93%
same,residual activity,MAP2K6 (human); compound 10.0 µM,100%
same,residual activity,MAP3K11 (human); compound 1.0 µM,92%
same,residual activity,MAP3K11 (human); compound 10.0 µM,98%
same,residual activity,MAPK10 (human); compound 1.0 µM,90%
same,residual activity,MAPK10 (human); compound 10.0 µM,95%
same,residual activity,MAPK12 (human); compound 1.0 µM,109%
same,residual activity,MAPK12 (human); compound 10.0 µM,108%
same,residual activity,MAPK13 (human); compound 1.0 µM,109%
same,residual activity,MAPK13 (human); compound 10.0 µM,123%
same,residual activity,MAPK3 (human); compound 1.0 µM,90%
same,residual activity,MAPK3 (human); compound 10.0 µM,94%
same,residual activity,MAPK8 (human); compound 1.0 µM,99%
same,residual activity,MAPK8 (human); compound 10.0 µM,106%
same,residual activity,MAPKAPK3 (human); compound 1.0 µM,94%
same,residual activity,MAPKAPK3 (human); compound 10.0 µM,86%
same,residual activity,MARK2 (human); compound 1.0 µM,99%
same,residual activity,MARK2 (human); compound 10.0 µM,104%
same,residual activity,MKNK1 (human); compound 1.0 µM,116%
same,residual activity,MKNK1 (human); compound 10.0 µM,111%
same,residual activity,MST4 (human); compound 1.0 µM,106%
same,residual activity,MST4 (human); compound 10.0 µM,112%
same,residual activity,NEK2 (human); compound 1.0 µM,97%
same,residual activity,NEK2 (human); compound 10.0 µM,96%
same,residual activity,NUAK1 (human); compound 1.0 µM,99%
same,residual activity,PAK4 (human); compound 1.0 µM,102%
same,residual activity,PAK4 (human); compound 10.0 µM,107%
same,residual activity,PAK7 (human); compound 1.0 µM,86%
same,residual activity,PAK7 (human); compound 10.0 µM,77%
same,residual activity,PLK1 (human); compound 1.0 µM,104%
same,residual activity,PLK1 (human); compound 10.0 µM,96%
same,residual activity,PRKAA1 or PRKAA2 (rat); compound 1.0 µM,98%
same,residual activity,PRKAA1 or PRKAA2 (rat); compound 10.0 µM,92%
same,residual activity,PRKACA (human); compound 1.0 µM,101%
same,residual activity,PRKACA (human); compound 10.0 µM,84%
same,residual activity,PRKCA (human); compound 1.0 µM,107%
same,residual activity,PRKCA (human); compound 10.0 µM,100%
same,residual activity,RPS6KA1 KD1 KD2 (human); compound 1.0 µM,98%
same,residual activity,RPS6KA1 KD1 KD2 (human); compound 10.0 µM,97%
same,residual activity,[2]; compound 1.0 µM,91%
same,residual activity,SYK (human); compound 10.0 µM,114%

# From the kinase profiling compilation of Christmann-Franck et al. (2016)
